These are literature values, as cited in US12324860B2, “Methods of treating central nervous system disorders via administration of nanoparticles of an mTOR inhibitor and an albumin” (Abraxis BioScience, LLC, priority 2018, dated 2025).

Where two headings read alike, the source gives them in different places.

The conditions of data set [1]: in vivo.
The conditions of data set [2]: preclinical studies.
The conditions of data set [3]: retrospective analysis (Lorgis et al. 2012).

As for `COc1ccc(COc2cc3oc(=O)c4cc(C(C)O)ccc4c3cc2OC)cc1` (stereo not shown) [Palomid 529], in the data set on ABCB1/ABCG2, the “affinity for ABCB1/ABCG2” value was “lacks affinity”. Besides, the brain penetration result in data set [1] is listed as “good brain penetration”. For `CO[C@H]1C[C@@H]2CC[C@@H](C)[C@@](O)(O2)C(=O)C(=O)N2CCCC[C@H]2C(=O)O[C@H]([C@H](C)C[C@@H]2CC[C@@H](OCCO)[C@H](OC)C2)CC(=O)[C@H](C)/C=C(\C)[C@@H](O)[C@@H](OC)C(=O)[C@H](C)C[C@H](C)/C=C/C=C/C=C/1C` [everolimus], the brain penetration entry in data set [2] is listed as “poor brain penetration”.

“bevacizumab: recombinant humanized anti-VEGF antibody”: the “PFS and OS with low dose intensity (<5 mg/kg/week) versus normal dose intensity at 10 mg/kg” value in data set [3] is “improved PFS and OS”.
